Structures are written as SMILES. Read-outs that look alike come from different tables or passages of the source. Square brackets hold non-standard residues; d marks the D form. Peptide text beside a SMILES is read from it. Bip = N[C@@H](Cc1ccc(-c2ccccc2)cc1)C(=O)O; αMePhe(2-F) = C[C@](N)(Cc1ccccc1F)C(=O)O; Phe(2-F) = N[C@@H](Cc1ccccc1F)C(=O)O; Aib = CC(C)(N)C(=O)O

This assay concerns the target T1, hGLP1 receptor (Homo sapiens, UniProt P43220).
T1 construct: expressed in transfected cells; host or cells: HEK (human embryonic kidney) cells co-expressing hGLP1 receptor and CRE-Luciferase
As to the kind of experiment: GLP-1 receptor agonism assay (HTRF cAMP, HEK cells co-expressing hGLP1 receptor and CRE-Luciferase). The format is cell-based. Particulars: for Emax: HEK293, Table 6 potency profile; for EC50: 0% HSA; for decreased potency by Ala substitution in RXL-3000: Ala-scanning, versus RXL-3000; for decreased potency (Aib/Ala comparison): versus respective parent analog. The protocol:
Human embryonic kidney cells (HEK) co-expressing the hGLP1 receptor and CRE-Luciferase construct were used to determine agonist potency in this assay. The cells were thawed briefly at 37 °C, transferred to a sterile tube, and re-suspended in complete media at 37 °C. Cells were centrifuged at 1000 rpm for 5 min and collected; the cells were then re-suspended in an assay buffer consisting of Dulbecco’s phosphate-buffered saline (DPBS, GIBCO) with 500 μM of the phosphodiesterase inhibitor 3-isobutyl-1-methylxanthine (IBMX). The assay medium had 0% serum albumin, as specified in Table 1, Table 2, Table 3 and Table 4. The optimal cell density was determined to be 1000 cells/well. Cells were added to wells in 384-well plates containing appropriate pre-prepared dilutions of compounds (test peptides or reference compound exendin-4), sealed, and incubated with CO2 for 30 min. Test peptide solutions were diluted from 10 mM stock solutions to be used in two separate runs (performed in triplicate) from a maximal concentration of 1.0 μM, with 11 concentrations tested for each peptide using serial 1:3 dilution from this maximal concentration. […] The agonist assay was a homogeneous time-resolved fluorescence (HTRF) assay (Cisbio). Following incubation of the cells for 30 min with test or reference peptides, 5 μL of the cAMP acceptor cAMP-d2, prepared previously as a working solution from frozen stock (1:20 dilution), was added to each well of the assay plate along with 5 μL of anti-cAMP antibody-cryptate working solution (diluted 1:20 from frozen stock). The wells were incubated for 1 h at room temperature, and fluorescence was then read at 665 and 615 nm with an Envision reader with a TRF laser. Data were saved and analyzed using Prism software (GraphPad). Concentration–response analysis was performed using 4-parameter logistic fits of the resulting data, and EC50 values were obtained for each test and reference compound.
(In general: TR-FRET usually uses a lanthanide donor and a delayed reading to cut background.)

The mark [1] stands for this setting: Table 1, Phe6 modifications, average of two independent experiments in triplicate (RXL-3039 tested once), read-out: cAMP EC50.
The mark [2] stands for this setting: Table 2, Ala-scanning, >1000 nM = out of range, read-out: cAMP EC50.
Setting [3] is: Table 3, Aib-scanning, >1000 nM = out of range, read-out: cAMP EC50.
Where [4] appears, read: Table 4, Ala-scan peptides, read-out: pEC50 (converted).

T1 sequence (P43220 24-463): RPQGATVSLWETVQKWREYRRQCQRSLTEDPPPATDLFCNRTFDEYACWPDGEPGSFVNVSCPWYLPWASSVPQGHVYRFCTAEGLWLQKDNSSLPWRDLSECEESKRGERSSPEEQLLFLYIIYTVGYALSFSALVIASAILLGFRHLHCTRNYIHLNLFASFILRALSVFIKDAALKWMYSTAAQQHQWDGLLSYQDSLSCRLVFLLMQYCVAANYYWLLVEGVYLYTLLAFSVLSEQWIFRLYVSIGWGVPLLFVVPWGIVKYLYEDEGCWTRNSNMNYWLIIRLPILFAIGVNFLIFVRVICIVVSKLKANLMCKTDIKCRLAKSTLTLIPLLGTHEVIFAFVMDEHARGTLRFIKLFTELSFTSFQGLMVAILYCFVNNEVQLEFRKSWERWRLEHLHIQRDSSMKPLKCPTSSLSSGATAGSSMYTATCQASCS

For orientation: Emax means the greatest response seen or fitted, relative to the assay's reference. In the case of `C[C@@H](O)[C@H](NC(=O)CNC(=O)[C@H](CCC(=O)O)NC(=O)C(C)(C)NC(=O)[C@@H](N)Cc1c[nH]cn1)C(=O)N[C@@H](Cc1ccccc1)C(=O)N[C@H](C(=O)N[C@@H](CO)C(=O)N[C@@H](CC(=O)O)C(=O)N[C@@H](Cc1ccc(-c2ccccc2)cc1)C(=O)N[C@@H](Cc1ccc(-c2ccccc2)cc1)C(N)=O)[C@@H](C)O` [RXL-100, His-Aib-Glu-Gly-Thr-Phe-Thr-Ser-Asp-Bip-Bip-NH2], the Emax came out at 110%. Further, under setting [1], the EC50 turned out to be 0.5 nM. Under setting [2], the EC50 is 0.5 nM. The EC50 under setting [3] came out at 0.5 nM.
Turning to `C[C@@H](O)[C@H](NC(=O)CNC(=O)[C@H](CCC(=O)O)NC(=O)C(C)(C)NC(=O)[C@@H](N)Cc1c[nH]cn1)C(=O)N[C@@](C)(Cc1ccccc1F)C(=O)N[C@H](C(=O)N[C@@H](CO)C(=O)N[C@@H](CC(=O)O)C(=O)N[C@@H](Cc1ccc(-c2ccccc2)cc1)C(=O)N[C@@H](Cc1ccc(-c2ccccc2)cc1)C(N)=O)[C@@H](C)O` [RXL-101, His-Aib-Glu-Gly-Thr-α-Me-Phe(2-F)-Thr-Ser-Asp-Bip-Bip-NH2] (H-H[Aib]EGT[αMePhe(2-F)]TSD[Bip][Bip]-NH2), the Emax is 117%. Further, the “Cα-methylation pEC50 contribution for position 6” value (pEC50 of RXL-101 minus pEC50 of RXL-3000) is on record as 0.97.
The molecule `C[C@@H](O)[C@H](NC(=O)CNC(=O)[C@H](CCC(=O)O)NC(=O)C(C)(C)NC(=O)[C@@H](N)Cc1c[nH]cn1)C(=O)N[C@@H](Cc1ccccc1F)C(=O)N[C@H](C(=O)N[C@@H](CO)C(=O)N[C@@H](CC(=O)O)C(=O)N[C@@H](Cc1ccc(-c2ccccc2)cc1)C(=O)N[C@@H](Cc1ccc(-c2ccccc2)cc1)C(N)=O)[C@@H](C)O` [RXL-3000, His-Aib-Glu-Gly-Thr-Phe(2-F)-Thr-Ser-Asp-Bip-Bip-NH2] returned an Emax of 109%. Further, the EC50 under setting [1] stood at 0.1 nM. Also, the EC50 under setting [2] was determined as 0.1 nM. Further, the EC50 under setting [3] was 0.1 nM. Moreover, where the note is “versus RXL-100”, the “GLP-1R agonist potency greater versus the parent peptide RXL-100” value is on record as “approximately fivefold”.
For the molecule `C[C@H](N)C(=O)NC(C)(C)C(=O)N[C@@H](CCC(=O)O)C(=O)NCC(=O)N[C@H](C(=O)N[C@@H](Cc1ccccc1F)C(=O)N[C@H](C(=O)N[C@@H](CO)C(=O)N[C@@H](CC(=O)O)C(=O)N[C@@H](Cc1ccc(-c2ccccc2)cc1)C(=O)N[C@@H](Cc1ccc(-c2ccccc2)cc1)C(N)=O)[C@@H](C)O)[C@@H](C)O` [RXL-3001, Ala-Aib-Glu-Gly-Thr-Phe(2-F)-Thr-Ser-Asp-Bip-Bip-NH2], the Emax is 108%. For the same molecule, the EC50 under setting [2] is 21.9 nM.
The molecule `C[C@H](NC(=O)[C@@H](N)Cc1c[nH]cn1)C(=O)N[C@@H](CCC(=O)O)C(=O)NCC(=O)N[C@H](C(=O)N[C@@H](Cc1ccccc1F)C(=O)N[C@H](C(=O)N[C@@H](CO)C(=O)N[C@@H](CC(=O)O)C(=O)N[C@@H](Cc1ccc(-c2ccccc2)cc1)C(=O)N[C@@H](Cc1ccc(-c2ccccc2)cc1)C(N)=O)[C@@H](C)O)[C@@H](C)O` [RXL-3002, His-Ala-Glu-Gly-Thr-Phe(2-F)-Thr-Ser-Asp-Bip-Bip-NH2] registered an Emax of 102%. Further, under setting [2], the EC50 stood at 0.2 nM.
Turning to `C[C@H](NC(=O)C(C)(C)NC(=O)[C@@H](N)Cc1c[nH]cn1)C(=O)NCC(=O)N[C@H](C(=O)N[C@@H](Cc1ccccc1F)C(=O)N[C@H](C(=O)N[C@@H](CO)C(=O)N[C@@H](CC(=O)O)C(=O)N[C@@H](Cc1ccc(-c2ccccc2)cc1)C(=O)N[C@@H](Cc1ccc(-c2ccccc2)cc1)C(N)=O)[C@@H](C)O)[C@@H](C)O` [RXL-3003, His-Aib-Ala-Gly-Thr-Phe(2-F)-Thr-Ser-Asp-Bip-Bip-NH2], the Emax came out at 108%. The EC50 under setting [2] was found to be 7.9 nM.
Take `C[C@H](NC(=O)CNC(=O)[C@H](CCC(=O)O)NC(=O)C(C)(C)NC(=O)[C@@H](N)Cc1c[nH]cn1)C(=O)N[C@@H](Cc1ccccc1F)C(=O)N[C@H](C(=O)N[C@@H](CO)C(=O)N[C@@H](CC(=O)O)C(=O)N[C@@H](Cc1ccc(-c2ccccc2)cc1)C(=O)N[C@@H](Cc1ccc(-c2ccccc2)cc1)C(N)=O)[C@@H](C)O` [RXL-3004, His-Aib-Glu-Gly-Ala-Phe(2-F)-Thr-Ser-Asp-Bip-Bip-NH2] (H-H[Aib]EGA[Phe(2-F)]TSD[Bip][Bip]-NH2): the Emax is 108%. Further, under setting [2], the EC50 is 7.7 nM. Besides, under setting [4], the EC50 is 6.92 nM.
Turning to `C[C@H](NC(=O)[C@H](Cc1ccccc1F)NC(=O)[C@@H](NC(=O)CNC(=O)[C@H](CCC(=O)O)NC(=O)C(C)(C)NC(=O)[C@@H](N)Cc1c[nH]cn1)[C@@H](C)O)C(=O)N[C@@H](CO)C(=O)N[C@@H](CC(=O)O)C(=O)N[C@@H](Cc1ccc(-c2ccccc2)cc1)C(=O)N[C@@H](Cc1ccc(-c2ccccc2)cc1)C(N)=O` [RXL-3005, His-Aib-Glu-Gly-Thr-Phe(2-F)-Ala-Ser-Asp-Bip-Bip-NH2] (H-H[Aib]EGT[Phe(2-F)]ASD[Bip][Bip]-NH2), the Emax came out at 102%. For the same molecule, the EC50 under setting [2] came out at 47.5 nM. Moreover, the EC50 under setting [4] is 21.4 nM.
Molecule `C[C@H](NC(=O)[C@@H](NC(=O)[C@H](Cc1ccccc1F)NC(=O)[C@@H](NC(=O)CNC(=O)[C@H](CCC(=O)O)NC(=O)C(C)(C)NC(=O)[C@@H](N)Cc1c[nH]cn1)[C@@H](C)O)[C@@H](C)O)C(=O)N[C@@H](CC(=O)O)C(=O)N[C@@H](Cc1ccc(-c2ccccc2)cc1)C(=O)N[C@@H](Cc1ccc(-c2ccccc2)cc1)C(N)=O` [RXL-3006, His-Aib-Glu-Gly-Thr-Phe(2-F)-Thr-Ala-Asp-Bip-Bip-NH2] (H-H[Aib]EGT[Phe(2-F)]TAD[Bip][Bip]-NH2) showed an Emax of 120%. Under setting [2], the EC50 worked out at 8.5 nM. In addition, the EC50 under setting [4] is 1.91 nM.
`C[C@H](NC(=O)[C@H](CO)NC(=O)[C@@H](NC(=O)[C@H](Cc1ccccc1F)NC(=O)[C@@H](NC(=O)CNC(=O)[C@H](CCC(=O)O)NC(=O)C(C)(C)NC(=O)[C@@H](N)Cc1c[nH]cn1)[C@@H](C)O)[C@@H](C)O)C(=O)N[C@@H](Cc1ccc(-c2ccccc2)cc1)C(=O)N[C@@H](Cc1ccc(-c2ccccc2)cc1)C(N)=O` [RXL-3007, His-Aib-Glu-Gly-Thr-Phe(2-F)-Thr-Ser-Ala-Bip-Bip-NH2] (H-H[Aib]EGT[Phe(2-F)]TSA[Bip][Bip]-NH2) had an Emax of 132%. In addition, the EC50 under setting [2] turned out to be 14 nM. The EC50 under setting [4] is 4.79 nM.
For `C[C@H](NC(=O)[C@H](CC(=O)O)NC(=O)[C@H](CO)NC(=O)[C@@H](NC(=O)[C@H](Cc1ccccc1F)NC(=O)[C@@H](NC(=O)CNC(=O)[C@H](CCC(=O)O)NC(=O)C(C)(C)NC(=O)[C@@H](N)Cc1c[nH]cn1)[C@@H](C)O)[C@@H](C)O)C(=O)N[C@@H](Cc1ccc(-c2ccccc2)cc1)C(N)=O` [RXL-3008, His-Aib-Glu-Gly-Thr-Phe(2-F)-Thr-Ser-Asp-Ala-Bip-NH2] (H-H[Aib]EGT[Phe(2-F)]TSDA[Bip]-NH2), the “decreased potency by Ala substitution in RXL-3000” value is above 1000 fold, the Emax came to 43.6% and the “decreased potency (Aib/Ala comparison)” value is > 10,000 fold. Also, the EC50 under setting [2] is above 1000 nM.
In the case of `C[C@H](NC(=O)[C@H](Cc1ccc(-c2ccccc2)cc1)NC(=O)[C@H](CC(=O)O)NC(=O)[C@H](CO)NC(=O)[C@@H](NC(=O)[C@H](Cc1ccccc1F)NC(=O)[C@@H](NC(=O)CNC(=O)[C@H](CCC(=O)O)NC(=O)C(C)(C)NC(=O)[C@@H](N)Cc1c[nH]cn1)[C@@H](C)O)[C@@H](C)O)C(N)=O` [RXL-3009, His-Aib-Glu-Gly-Thr-Phe(2-F)-Thr-Ser-Asp-Bip-Ala-NH2], the “decreased potency by Ala substitution in RXL-3000” value is reported as above 1000 fold, the Emax came out at 43.2% and the “decreased potency (Aib/Ala comparison)” value is listed as 10,000 fold. The EC50 under setting [2] was above 1000 nM.
The molecule `C[C@@H](O)[C@H](NC(=O)CNC(=O)[C@H](CCC(=O)O)NC(=O)C(C)(C)NC(=O)[C@@H](N)Cc1c[nH]cn1)C(=O)N[C@@H](Cc1ccccc1Br)C(=O)N[C@H](C(=O)N[C@@H](CO)C(=O)N[C@@H](CC(=O)O)C(=O)N[C@@H](Cc1ccc(-c2ccccc2)cc1)C(=O)N[C@@H](Cc1ccc(-c2ccccc2)cc1)C(N)=O)[C@@H](C)O` [RXL-3010, His-Aib-Glu-Gly-Thr-Phe(2-Br)-Thr-Ser-Asp-Bip-Bip-NH2] returned an Emax of 121%. Also, the EC50 under setting [1] was 3.85 nM.
`C[C@@H](O)[C@H](NC(=O)CNC(=O)[C@H](CCC(=O)O)NC(=O)C(C)(C)NC(=O)[C@@H](N)Cc1c[nH]cn1)C(=O)N[C@@H](Cc1ccccc1Cl)C(=O)N[C@H](C(=O)N[C@@H](CO)C(=O)N[C@@H](CC(=O)O)C(=O)N[C@@H](Cc1ccc(-c2ccccc2)cc1)C(=O)N[C@@H](Cc1ccc(-c2ccccc2)cc1)C(N)=O)[C@@H](C)O` [RXL-3011, His-Aib-Glu-Gly-Thr-Phe(2-Cl)-Thr-Ser-Asp-Bip-Bip-NH2] showed an Emax of 91.3%. The EC50 under setting [1] was 0.9 nM.
